# Laboratory results as given in US4732970A, “Antitumor amino acid and peptide derivatives of 1,4-bis(aminoalkyl and hydroxy-aminoalkyl)amino)-5,8-dihydroxyanthraquinones” (priority 1986, dated 1988).
# System: lymphocytic leukemia P388
# Assay: Lymphocytic Leukemia P388 Test
# Type: in vivo, BDF1 mice
# Conditions: for Median Survival: BDF1 mice; for T/C × 100 (%): ratio of survival time treated/control
# Method: The animals used were BDF1 mice, all of one sex, weighing a minimum of 18 g and all within a 3 g weight range. There were 5 or 6 mice per test group. The tumor transplant was by intraperitoneal injection of 0.5 ml of dilute ascitic fluid containing 10^6 cells of lymphocytic leukemia P388. The test compounds were administered intraperitoneally on days 1, 5 and 9 (relative to tumor inocu-lation) at various doses. The animals were weighed and survivors recorded on a regular basis for 60 days. The median survival time and the ratio of survival time for treated (T)/control (C) animals were calculated.
# [1] = dose 0.75 mg/kg intraperitoneally on days 1, 5 and 9
# [2] = dose 1.5 mg/kg intraperitoneally on days 1, 5 and 9
# [3] = dose 3 mg/kg intraperitoneally on days 1, 5 and 9
Compound,Median Survival [1] [days],T/C × 100 (%) [1] [%],Median Survival [2] [days],T/C × 100 (%) [2] [%],Median Survival [3] [days],T/C × 100 (%) [3] [%]
"CC(C)(C)OC(=O)N[C@@H](CO)C(=O)NCCNc1ccc(NCCNC(=O)[C@H](CO)NC(=O)OC(C)(C)C)c2c1C(=O)c1c(O)ccc(O)c1C2=O (relative stereo) [Example 14, [S-(R*,R*)]-N,N'-[(9,10-Dihydro-5,8-dihydroxy-9,10-dioxo-1,4-anthracenediyl)bis[imino-2,1-ethanediylimino-[1-(hydroxymethyl)-2-oxo-2,1-ethanediyl]]]bis-carbamic acid, bis(1,1-dimethylethyl)ester]",13.5,123,16.0,145,17.5,159
"Cl.Cl.N[C@@H](Cc1ccccc1)C(=O)NCCNc1ccc(NCCNC(=O)[C@@H](N)Cc2ccccc2)c2c1C(=O)c1c(O)ccc(O)c1C2=O (relative stereo) [Example 17, [S-(R*,R*)]-N,N'-[(9,10-Dihydro-5,8-dihydroxy-9,10-dioxo-1,4-anthracenediyl)bis(imino-2,1-ethanediyl)]bis[2-aminobenzenepropanamide], dihydrochloride]",22.5,188,23.0,192,19.5,163
"CC[C@H](C)[C@H](N)C(=O)NCCNc1ccc(NCCNC(=O)[C@@H](N)[C@@H](C)CC)c2c1C(=O)c1c(O)ccc(O)c1C2=O.Cl.Cl (relative stereo) [Example 21, [S-(R*,R*,R*,R*)]-N,N'-[(9,10-Dihydro-5,8-dihydroxy-9,10-dioxo-1,4-anthracenediyl)bis(imino-2,1-ethanediyl)]bis-[2-amino-3-methylpentanamide], dihydrochloride]",18.5,185,18.0,180,22.5,225
"CSCC[C@H](N)C(=O)NCCNc1ccc(NCCNC(=O)[C@@H](N)CCSC)c2c1C(=O)c1c(O)ccc(O)c1C2=O.Cl.Cl (relative stereo) [Example 22, [S-(R*,R*)]N,N'(9,10-Dihydro-5,8-dihydroxy-9,10-dioxo-1,4-anthracenediyl)bis(imino-2,1-ethanediyl)]-bis[2-amino-4-(methylthio)butanamide], dihydrochloride]",17.0,170,20.5,205,25.5,255
"CC(C)[C@H](N)C(=O)NCCNc1ccc(NCCNC(=O)[C@@H](N)C(C)C)c2c1C(=O)c1c(O)ccc(O)c1C2=O.Cl.Cl (relative stereo) [Example 24, [S-(R*,R*)]-N,N'-[(9,10-Dihydro-5,8-dihydroxy-9,10-dioxo-1,4-anthracenediyl)bis(imino-2,1-ethanediyl)]bis-[2-Amino-3-methylbutanamide], dihydrochloride]",18.5,185,20.0,200,20.0,200
"CC(C)C[C@@H](N)C(=O)N(CCO)CCNc1ccc(NCCN(CCO)C(=O)[C@H](N)CC(C)C)c2c1C(=O)c1c(O)ccc(O)c1C2=O.O=C(O)C(F)(F)F.O=C(O)C(F)(F)F.O=C(O)C(F)(F)F (relative stereo) [Example 29, [R-(R*,R*)]-N,N'-[(9,10-Dihydro-5,8-dihydroxy-9,10-dioxo-1,4-anthracenediyl)bis(imino-2,1-ethanediyl)]bis-[2-amino-N-(2-hydroxyethyl)-4-methylpentanamide]tris(trifluoroacetate)]",12.0,109,13.0,118,15.5,141
"Br.Br.N[C@@H](CS)C(=O)NCCNc1ccc(NCCNC(=O)[C@@H](N)CS)c2c1C(=O)c1c(O)ccc(O)c1C2=O (relative stereo) [Example 35, R-(R*,R*)]-N,N'-[(9,10-Dihydro-5,8-dihydroxy-9,10-dioxo-1,4-anthracenediyl)bis(imino-2,1-ethanediyl)]bis[2-amino-3-mercaptopropanamide], dihydrobromide]",21.0,210,23.0,230,24.5,245
"N[C@@H](CO)C(=O)NCCNc1ccc(NCCNC(=O)[C@@H](N)CO)c2c1C(=O)c1c(O)ccc(O)c1C2=O.O=C(O)C(F)(F)F.O=C(O)C(F)(F)F (relative stereo) [Example 36, [S-(R*,R*)]-N,N'-(9,10-Dihydro-5,8-dihydroxy-9,10-dioxo-1,4-anthracenediyl)bis(imino-2,1-ethanediyl)]bis[2-amino-3-hydroxyropanamide]bis(trifluoroacetate)]",19.0,173,19.0,173,23.5,214
"Cl.Cl.N[C@@H](Cc1ccc(O)cc1)C(=O)NCCNc1ccc(NCCNC(=O)[C@@H](N)Cc2ccc(O)cc2)c2c1C(=O)c1c(O)ccc(O)c1C2=O (relative stereo) [Example 37, [S-(R*,R*)]-N,N'-[(9,10-Dihydro-5,8-dihydroxy-9,10-dioxo-1,4anthracenediyl)bis(imino-2,1-ethanediyl)]bis-[2,-amino-3-(4-hydroxyphenyl)-propanamide, dihydrochloride]",25.0,227,23.5,214,23.5,214
"CC(C)(C)OC(=O)C[C@H](NC(=O)OCC1c2ccccc2-c2ccccc21)C(=O)NCCNc1ccc(NCCNC(=O)[C@H](CC(=O)OC(C)(C)C)NC(=O)OCC2c3ccccc3-c3ccccc32)c2c1C(=O)c1c(O)ccc(O)c1C2=O (relative stereo) [Example 38, [S-R*,R*)]-4,4'-[(9,10-Dihydro-5,8-dihydroxy-D9,10-dioxo-1,4-anthracenediyl)bis(imino-2,1-ethanediylimino)]bis[3-[[9H-fluoren-9-ylmethoxycarbonyl]amino]-4-oxobut anoic acid],bis(1,1-dimethyl)ester]",13.0,108,15.0,125,16.0,133
"CC(C)(C)OC(=O)C[C@H](N)C(=O)NCCNc1ccc(NCCNC(=O)[C@@H](N)CC(=O)OC(C)(C)C)c2c1C(=O)c1c(O)ccc(O)c1C2=O (relative stereo) [Example 39, [S-(R*,R*)]-4,4'-[(9,10-Dihydro-5,8-dihydroxy-9,10-dioxo-1,4-anthracenediyl)bis(imino-2,1-ethanediylimino)]bis[3-amino-4-oxobutanoic acid]bis(1,1-dimethylethyl)ester]",21.5,179,19.5,163,19.0,158
"N[C@@H](CC(=O)O)C(=O)NCCNc1ccc(NCCNC(=O)[C@@H](N)CC(=O)O)c2c1C(=O)c1c(O)ccc(O)c1C2=O.O=C(O)C(F)(F)F.O=C(O)C(F)(F)F (relative stereo) [Example 40, S-(R*,R*)]-4,4'-[(9,10-Dihydro-5,8-dihydroxy-9,10-dioxo-1,4-anthracenediyl)bis(imino-2,1-ethanediylimino)]bis[3amino-4-oxobutanoic acid]bis(trifluoroacetate)]",23.0,192,19.5,163,23.0,192
"CC(C)(C)OC(=O)N[C@@H](COCc1ccccc1)C(=O)NCCNc1ccc(NCCNC(=O)[C@H](COCc2ccccc2)NC(=O)OC(C)(C)C)c2c1C(=O)c1c(O)ccc(O)c1C2=O (relative stereo) [Example 41, S-(R*,R*)]-N,N'-[(9,10-Dihydro-5,8-dihydroxy-9,10-dioxo-1,4-anthracenediyl)bis[imino-2,1-ethanediylimino-[2-oxo-1-[(phenylmethoxy)methyl]-2,1-ethanediyl]]]biscarbamic acid, bis(1,1-dimethylethyl)ester]",12.0,120,13.5,135,15.5,155
"N[C@@H](COCc1ccccc1)C(=O)NCCNc1ccc(NCCNC(=O)[C@@H](N)COCc2ccccc2)c2c1C(=O)c1c(O)ccc(O)c1C2=O.O=C(O)C(F)(F)F.O=C(O)C(F)(F)F (relative stereo) [Example 42, [S-(R*,R*)]-N,N'-[(9,10-Dihydro-5,8-dihydroxy-9,10-dioxo-1,4-anthracenediyl)bis[imino-2,1-ethanediyl)]bis[2-amino-3-(phenylmethoxy)-propanamide]bis(trifluoroacetate)]",19.5,195,21.5,215,19.5,195
